Usually pIC50 stands for the negative decadic logarithm of the IC50, by convention in mol/L. Low values mean a high IC50, high ones a low IC50.

pIC50: −log10 of the molar value.

Results on 15 molecules are retold here after ChEMBL document CHEMBL6177919, “Development, biological evaluation, and molecular modelling of some benzene-sulfonamide derivatives as protein tyrosine phosphatase-1B inhibitors for managing diabetes mellitus and associated metabolic disorders” (RSC Med Chem, 2025).

Assay [1] deals with T1, Tyrosine-protein phosphatase non-receptor type 1 (Homo sapiens, UniProt P18031).
T1 sequence (P18031 whole entry): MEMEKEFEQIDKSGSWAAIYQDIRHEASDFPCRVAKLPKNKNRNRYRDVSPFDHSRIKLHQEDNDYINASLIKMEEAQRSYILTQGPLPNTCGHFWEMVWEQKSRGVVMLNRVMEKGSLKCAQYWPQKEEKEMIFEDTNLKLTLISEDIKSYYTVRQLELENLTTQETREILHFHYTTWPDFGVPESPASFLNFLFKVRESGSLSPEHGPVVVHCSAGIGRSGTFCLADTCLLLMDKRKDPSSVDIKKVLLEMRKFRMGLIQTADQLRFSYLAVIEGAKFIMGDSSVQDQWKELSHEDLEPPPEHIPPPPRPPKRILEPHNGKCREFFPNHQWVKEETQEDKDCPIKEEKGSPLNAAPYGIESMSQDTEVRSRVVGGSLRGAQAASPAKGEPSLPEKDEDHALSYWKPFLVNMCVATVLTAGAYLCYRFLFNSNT
Description: Inhibition of PTP1B (unknown origin)

For assay [2], the target named is T1, Tyrosine-protein phosphatase non-receptor type 1. This is another data set of the same source.
Description: Inhibition of human recombinant PTP1B incubated for 15 mins by fluorometric assay
The target is the same in assay [3]. This is another data set of the same source.
Description: Inhibition of C-terminal PTP1B (unknown origin)

With `O=C(O)c1ccc(CN2C(=O)S/C(=C\c3ccc(OCc4ccccc4)cc3)C2=O)cc1`, in assay [1], the negative-log IC50 (pIC50) is 5.89. `O=C1CS/C(=N\c2ccccc2)N1c1ccc(S(=O)(=O)Nc2ncccn2)cc1` showed a negative-log IC50 (pIC50) in assay [2] of 4.85. In turn, `CC(=O)C1=CC(=O)N(c2ccc(S(=O)(=O)Nc3ncccn3)cc2)C1=O` gave a pIC50 in assay [2] of 6.08. For `CCN1C(=O)C(C)S/C1=N\c1ccc(S(=O)(=O)Nc2ncccn2)cc1` (stereo not given), in assay [2], the pIC50 was 6.15. The same measure, in the same setting: under `CN1CCN(CC(=O)Nc2ccc(S(=O)(=O)Nc3ncccn3)cc2)CC1` stands 6.24; under `N#CC1=CC(=O)N(c2ccc(S(=O)(=O)Nc3ncccn3)cc2)C1=O`, 6.14.

`CC/N=C1\SCC(=O)N1c1ccc(S(=O)(=O)Nc2ncccn2)cc1` had a negative-log IC50 (pIC50) in assay [2] of 4.78. Still for that read-out and setting: under `O=C(CN1CCN(c2ccccc2)CC1)Nc1ccc(S(=O)(=O)Nc2ncccn2)cc1` stands 5.44. The same measure, in the same setting: under `CC1S/C(=N\c2ccc(S(=O)(=O)Nc3ncccn3)cc2)N(c2ccccc2)C1=O` (stereo not given) stands 5.72. In assay [2], `CCN1C(=O)CS/C1=N\c1ccc(S(=O)(=O)Nc2ncccn2)cc1` had a pIC50 of 6.21. Same read-out and setting: under `CC1O/C(=N\c2ccc(S(=O)(=O)Nc3ncccn3)cc2)N(c2ccccc2)C1=O` (stereo not given) stands 5.71. Same read-out and setting: under `N=C1SCC(=O)N1c1ccc(S(=O)(=O)Nc2ncccn2)cc1` stands 5.05; under `O=S(=O)(Nc1ncccn1)c1ccc(NCc2nc3ccccc3[nH]2)cc1`, 6.17. In the case of `COC(=O)CC[C@@H](C)[C@H]1CC[C@H]2[C@@H]3[C@H](O)C[C@H]4C[C@H](NCCCCNCc5ccccn5)CC[C@]4(C)[C@H]3CC[C@]12C`, the pIC50 in assay [3] was 7.00. For `CCc1ccc(CCOc2ccc(CC3SC(=O)NC3=O)cc2)nc1` (stereo not given) [PIOGLITAZONE], the pIC50 in assay [2] is 6.19.
